In one data set the test system is HeLa. The experiment in a line: Cytotoxicity against human HeLa cells by MTS assay. It is filed as functional, cell-based.
Data set [1] in a line: Cytotoxicity against mouse promotion-sensitive JB6 Cl41 cells by MTS assay. The data set is classed as cell-based.
In data set [2] the target is Cellular tumor antigen p53 (Mus musculus) (UniProt P02340). The experiment in a line: Induction of p53-dependent transcriptional activity in mouse JB6 Cl41 cells at 12.5 uM after 6 hrs. The data set is classed as cell-based.
Chain of Cellular tumor antigen p53 (Mus musculus) (P02340 whole entry): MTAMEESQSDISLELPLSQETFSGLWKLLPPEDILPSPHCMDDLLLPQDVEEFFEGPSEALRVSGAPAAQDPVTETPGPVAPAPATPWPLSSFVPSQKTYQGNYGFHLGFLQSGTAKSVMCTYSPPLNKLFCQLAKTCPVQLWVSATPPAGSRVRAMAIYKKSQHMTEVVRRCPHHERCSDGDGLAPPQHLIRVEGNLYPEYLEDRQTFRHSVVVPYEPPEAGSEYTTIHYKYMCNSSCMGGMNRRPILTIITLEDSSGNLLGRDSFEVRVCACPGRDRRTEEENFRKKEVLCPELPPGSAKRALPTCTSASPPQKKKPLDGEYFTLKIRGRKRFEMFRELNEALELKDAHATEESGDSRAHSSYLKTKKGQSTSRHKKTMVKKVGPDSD
Data set [3] deals with Transcription factor Jun (Mus musculus) (UniProt P05627). The experiment in a line: Induction of AP1-dependent transcriptional activity in mouse JB6 Cl41 cells at 125 uM after 6 hrs. It is filed as cell-based.
Chain of Transcription factor Jun (Mus musculus) (P05627 whole entry): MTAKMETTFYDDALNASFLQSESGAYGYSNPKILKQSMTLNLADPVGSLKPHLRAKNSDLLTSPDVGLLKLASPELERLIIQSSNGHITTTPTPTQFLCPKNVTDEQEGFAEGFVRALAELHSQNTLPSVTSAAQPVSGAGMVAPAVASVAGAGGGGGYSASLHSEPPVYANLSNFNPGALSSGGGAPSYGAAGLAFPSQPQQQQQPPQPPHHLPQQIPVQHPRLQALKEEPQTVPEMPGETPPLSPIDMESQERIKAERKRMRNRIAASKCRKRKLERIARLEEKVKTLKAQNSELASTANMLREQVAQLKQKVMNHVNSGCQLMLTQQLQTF
The test system of another data set is JB6 Cl41. The data set is described as follows: Induction of NF-kappaB-dependent transcriptional activity in mouse JB6 Cl41 cells at 125 uM after 6 hrs. It is filed as cell-based.
Data set [4] in a line: Cytotoxicity against mouse promotion-sensitive JB6 Cl41 cells up to 50 uM by MTS assay. It is filed as cell-based.

From ChEMBL document CHEMBL1158618, “Two new asterosaponins, archasterosides A and B, from the Vietnamese starfish Archaster typicus and their anticancer properties” (Bioorg Med Chem Lett, 2010) come the findings set out here.

Active and inactive are the calls of the source. The calls are words filed in the database; no cut-off is given here.

On to `CC[C@@H](C(C)C)[C@@H]1O[C@H]1[C@@](C)(O)[C@H]1[C@@H](O)C[C@H]2[C@@H]3C[C@H](O[C@@H]4O[C@H](CO)[C@@H](O)[C@H](O[C@@H]5O[C@H](C)[C@@H](O[C@@H]6O[C@H](C)[C@@H](O)[C@H](O)[C@H]6O[C@@H]6O[C@H](C)[C@H](O)[C@H](O)[C@H]6O)[C@H](O)[C@H]5O[C@@H]5O[C@H](C)[C@@H](O)[C@H](O)[C@H]5O)[C@H]4O)[C@H]4C[C@@H](OS(=O)(=O)O)CC[C@]4(C)C3=CC[C@]12C` [ARCHASTEROSIDE A], for which the IC50 in the data set on HeLa came out at 24 µM; in data set [1], 37 µM.

Consider `CC(C)CCC[C@@](C)(O)[C@H]1[C@@H](O)C[C@H]2[C@@H]3C[C@H](O[C@@H]4O[C@H](C)[C@@H](O)[C@H](O[C@@H]5O[C@H](C)[C@@H](O[C@@H]6O[C@H](C)[C@@H](O)[C@H](O)[C@H]6O[C@@H]6O[C@H](C)[C@H](O)[C@H](O)[C@H]6O)[C@H](O)[C@H]5O[C@@H]5O[C@H](C)[C@@H](O)[C@H](O)[C@H]5O)[C@H]4O)[C@H]4C[C@@H](OS(=O)(=O)O)CC[C@]4(C)C3=CC[C@@]21C` [ARCHASTEROSIDE B], for which the fold change (FC) in data set [2] is 1.3; in data set [3], 1.7. Also, the IC50 is 14 µM with HeLa and 18 µM in data set [1]. For the same compound, the result in the data set on JB6 Cl41 was inactive.

Take `CC(C)[C@H](C)[C@@H]1O[C@H]1[C@@](C)(O)[C@H]1[C@@H](O)C[C@H]2[C@@H]3C[C@H](O[C@@H]4O[C@H](CO)[C@@H](O)[C@H](O[C@@H]5O[C@H](C)[C@@H](O[C@@H]6O[C@H](C)[C@@H](O)[C@H](O)[C@H]6O[C@@H]6O[C@H](C)[C@H](O)[C@H](O)[C@H]6O)[C@H](O)[C@H]5O[C@@H]5O[C@H](C)[C@@H](O)[C@H](O)[C@H]5O)[C@H]4O)[C@H]4C[C@@H](OS(=O)(=O)[O-])CC[C@]4(C)C3=CC[C@]12C.[Na+]` [REGULAROSIDE A]: the Activity entry in data set [4] was “Non-toxic”. This compound came in with an IC50 in the data set with HeLa of 110 µM.
